Values joined by “and” are separate entries in the source; they are usually repeats but may differ in a detail not shown here. Equal entries are not always repeated.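 Growth conditions: 96-well plates. Treatment: test compound, 48 hours, 5 concentrations. Analysis: linear interpolation between bracketing concentrations; unreached endpoints set to highest concentration. At the GI50, growth is halved. TGI is the concentration that stops growth completely.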
Legend:
Test in all cases: DTP human tumour cell line panel, 48 h
[1] = system: 786-0 renal
[2] = system: TK-10 renal
[3] = system: PC-3 prostate
[4] = system: SK-MEL-5 melanoma
[5] = system: SK-MEL-28 melanoma
[6] = system: OVCAR-4 ovarian
[7] = system: UO-31 renal
[8] = system: HCC-2998 colon
[9] = system: NCI-H522 lung
[10] = system: HL-60(TB) leukemia
[11] = system: M14 melanoma
[12] = system: COLO 205 colon
[13] = system: T-47D breast
[14] = system: UACC-257 melanoma
[15] = system: OVCAR-3 ovarian
[16] = system: LOX IMVI melanoma
[17] = system: U251 CNS
[18] = system: MOLT-4 leukemia
[19] = system: RXF 393 renal
[20] = system: SR leukemia
[21] = system: CAKI-1 renal
[22] = system: CCRF-CEM leukemia
[23] = system: NCI/ADR-RES ovarian
[24] = system: NCI-H460 lung
[25] = system: KM12 colon
[26] = system: MDA-MB-231 breast
[27] = system: BT-549 breast
[28] = system: SF-295 CNS
[29] = system: DU-145 prostate
[30] = system: SN12C renal
[31] = system: SK-OV-3 ovarian
[32] = system: HOP-92 NSCLC
[33] = system: SW-620 colon
[34] = system: SK-MEL-2 melanoma
[35] = system: IGROV1 ovarian
[36] = system: SF-268 CNS
[37] = system: SF-539 CNS
[38] = system: EKVX NSCLC
[39] = system: HCT-15 colon
[40] = system: MDA-MB-435
[41] = system: SNB-19 CNS
[42] = system: OVCAR-8 ovarian
[43] = system: A549 NSCLC
[44] = system: HS 578T breast
[45] = system: UACC-62 melanoma
[46] = system: K-562 leukemia
[47] = system: A498 renal
[48] = system: MCF7 breast
[49] = system: NCI-H226 lung
[50] = system: MALME-3M melanoma
[51] = system: HT29 colon
[52] = system: HOP-62 NSCLC
[53] = system: ACHN renal
[54] = system: NCI-H23 lung
[55] = system: HCT-116 colon
[56] = system: OVCAR-5 ovarian
[57] = system: RPMI-8226 leukemia
[58] = system: SNB-75 CNS

Compound: CC1=CC[C@@H]2C(C)(C)C(=O)CC[C@@]2(C)[C@@H]1COc1ccc2ccc(=O)oc2c1
- GI50 [1]: 46.8 µM
- TGI [1]: > 100 µM
- GI50 [2]: 45.3 µM
- TGI [2]: > 100 µM
- GI50 [3]: 5.41 µM
- TGI [3]: 31.8 µM
- GI50 [4]: 4 µM
- TGI [4]: 14.2 µM
- GI50 [5]: 16.7 µM
- TGI [5]: 45.2 µM
- GI50 [6]: 5.53 µM
- TGI [6]: 44.8 µM
- GI50 [7]: 8.15 µM
- TGI [7]: 34.9 µM
- GI50 [8]: 30.3 µM
- TGI [8]: > 100 µM
- GI50 [9]: 8.97 µM
- TGI [9]: 50.9 µM
- GI50 [10]: 7.3 µM
- TGI [10]: 29.2 µM
- GI50 [11]: 12.9 µM
- TGI [11]: 32.7 µM
- GI50 [12]: 10.6 µM
- TGI [12]: 39.4 µM
- GI50 [13]: 2.69 µM
- TGI [13]: 11.1 µM
- GI50 [14]: 12.3 µM
- TGI [14]: 31 µM
- GI50 [15]: 10.1 µM
- TGI [15]: 56.9 µM
- GI50 [16]: 17.6 µM
- TGI [16]: 48.6 µM
- GI50 [17]: 27.6 µM
- TGI [17]: > 100 µM
- GI50 [18]: 3.79 µM
- TGI [18]: 17.9 µM
- GI50 [19]: 62 µM
- TGI [19]: > 100 µM
- GI50 [20]: 13.2 µM
- TGI [20]: 68.5 µM
- GI50 [21]: 9.5 µM
- TGI [21]: 80.8 µM
- GI50 [22]: 5.48 µM
- TGI [22]: 70.9 µM
- GI50 [23]: 4.06 µM
- TGI [23]: 19.9 µM
- GI50 [24]: 21.8 µM
- TGI [24]: 79.7 µM
- GI50 [25]: 9.15 µM
- TGI [25]: 23.7 µM
- GI50 [26]: 25.5 µM
- TGI [26]: > 100 µM
- GI50 [27]: 4.37 µM
- TGI [27]: 22.5 µM
- GI50 [28]: 15.5 µM
- TGI [28]: 44.3 µM
- GI50 [29]: 23.6 µM
- TGI [29]: 93.6 µM
- GI50 [30]: 27.3 µM
- TGI [30]: > 100 µM
- GI50 [31]: 31.9 µM
- TGI [31]: > 100 µM
- GI50 [32]: 27.4 µM
- TGI [32]: > 100 µM
- GI50 [33]: 24.9 µM
- TGI [33]: > 100 µM
- GI50 [34]: 11.5 µM
- TGI [34]: 42.3 µM
- GI50 [35]: 16.2 µM
- TGI [35]: 55.1 µM
- GI50 [36]: 23.3 µM
- TGI [36]: > 100 µM
- GI50 [37]: 20.1 µM
- TGI [37]: 63.8 µM
- GI50 [38]: 13.6 µM
- TGI [38]: > 100 µM
- GI50 [39]: 13.4 µM
- TGI [39]: 56.4 µM
- GI50 [40]: 11.9 µM
- TGI [40]: 29.9 µM
- GI50 [41]: 32.9 µM
- TGI [41]: > 100 µM
- GI50 [42]: 5.69 µM
- TGI [42]: 39 µM
- GI50 [43]: 10.9 µM
- TGI [43]: 71.2 µM
- GI50 [44]: 40.5 µM
- TGI [44]: > 100 µM
- GI50 [45]: 5.22 µM
- TGI [45]: 23.5 µM
- GI50 [46]: 7.02 µM
- TGI [46]: 88.7 µM
- GI50 [47]: 6.56 µM
- TGI [47]: > 100 µM
- GI50 [48]: 12.4 µM
- TGI [48]: 31.9 µM
- GI50 [49]: 8.7 µM
- TGI [49]: 33.7 µM
- GI50 [50]: 14.4 µM
- TGI [50]: 38.9 µM
- GI50 [51]: 23.8 µM
- TGI [51]: > 100 µM
- GI50 [52]: 22.3 µM
- TGI [52]: 85.1 µM
- GI50 [53]: 15.3 µM
- TGI [53]: 79.9 µM
- GI50 [54]: 15.3 µM
- TGI [54]: 61.2 µM
- GI50 [55]: 16.4 µM
- TGI [55]: > 100 µM
- GI50 [56]: 25.9 µM
- TGI [56]: > 100 µM

Compound: COc1cc(NS(C)(=O)=O)ccc1Nc1c2ccccc2nc2c(C)cccc12
- GI50 [1]: 0.16 µM and 0.17 µM
- TGI [1]: 0.923 µM and 1.34 µM
- GI50 [2]: 0.476 µM and 0.16 µM
- TGI [2]: 2.94 µM and 1.38 µM
- GI50 [3]: 0.629 µM and 1.05 µM
- TGI [3]: 18.6 µM and 25.5 µM
- GI50 [4]: 0.153 µM and 0.218 µM
- TGI [4]: 1.2 µM and 3.69 µM
- GI50 [57]: 0.187 µM and 0.134 µM
- TGI [57]: 0.853 µM and 0.717 µM
- GI50 [5]: 1.1 µM and 1.33 µM
- TGI [5]: 7.68 µM and 13.7 µM
- GI50 [6]: 1.86 µM and 2.6 µM
- TGI [6]: 9.74 µM and 16.7 µM
- GI50 [7]: 0.215 µM and 0.124 µM
- TGI [7]: 5.28 µM and 2.81 µM
- GI50 [8]: 0.645 µM and 0.695 µM
- TGI [8]: 6.32 µM and 5.51 µM
- GI50 [9]: 0.662 µM and 0.219 µM
- TGI [9]: 12.2 µM and 2.98 µM
- GI50 [10]: 0.0403 µM and 0.046 µM
- TGI [10]: 0.889 µM and 0.669 µM
- GI50 [11]: 0.198 µM and 0.129 µM
- TGI [11]: 13.9 µM and 11.1 µM
- GI50 [12]: 0.245 µM and 0.243 µM
- TGI [12]: 2.59 µM and 5.16 µM
- GI50 [13]: 0.111 µM and 0.109 µM
- TGI [13]: 4.05 µM and 5.71 µM
- GI50 [14]: 0.792 µM and 0.639 µM
- TGI [14]: 12.1 µM and 13.5 µM
- GI50 [15]: 0.794 µM and 0.933 µM
- TGI [15]: 2.35 µM and 2.94 µM
- GI50 [16]: 0.0512 µM and 0.0544 µM
- TGI [16]: 1.35 µM and 1.51 µM
- GI50 [17]: 0.106 µM and 0.0963 µM
- TGI [17]: 1.15 µM and 0.868 µM
- GI50 [18]: 0.0245 µM and 0.0304 µM
- TGI [18]: 0.229 µM and 0.176 µM
- GI50 [19]: 0.258 µM and 0.326 µM
- TGI [19]: 1.72 µM and 3.36 µM
- GI50 [20]: < 0.0145 µM and 0.013 µM
- TGI [20]: 6.75 µM and 2.16 µM
- GI50 [21]: 0.073 µM and 0.0923 µM
- TGI [21]: 4.6 µM and 5.71 µM
- GI50 [22]: 0.0322 µM and 0.0364 µM
- GI50 [23]: 0.992 µM and 1.45 µM
- TGI [23]: 76.1 µM and 54.9 µM
- GI50 [24]: 0.0175 µM and 0.022 µM
- TGI [24]: 1.1 µM and 1.08 µM
- GI50 [25]: 0.416 µM and 0.558 µM
- TGI [25]: 2.42 µM and 3.74 µM
- GI50 [26]: 1.73 µM and 2.88 µM
- TGI [26]: 7.01 µM and 15.3 µM
- GI50 [27]: 0.412 µM and 0.394 µM
- TGI [27]: 4.62 µM and 2.86 µM
- GI50 [28]: 0.0399 µM and 0.0874 µM
- TGI [28]: 0.386 µM and 3.46 µM
- GI50 [29]: 0.145 µM and 0.163 µM
- TGI [29]: 7 µM and 11.5 µM
- GI50 [30]: 0.0961 µM and 0.087 µM
- TGI [30]: 1.36 µM and 2.08 µM
- GI50 [58]: 0.143 µM and 0.316 µM
- TGI [58]: 4.31 µM and 10.7 µM
- GI50 [31]: 0.302 µM and 0.332 µM
- TGI [31]: 7.8 µM and 11 µM
- GI50 [32]: 0.0495 µM and 0.104 µM
- TGI [32]: 1.1 µM and 2.27 µM
- GI50 [33]: 0.0825 µM and 0.123 µM
- TGI [33]: 3.4 µM and 4 µM
- GI50 [34]: 6.54 µM and 1.72 µM
- TGI [34]: 20.8 µM and 10.4 µM
- GI50 [35]: 0.541 µM and 0.438 µM
- TGI [35]: 24.1 µM and 19.9 µM
- GI50 [36]: 0.266 µM and 0.288 µM
- TGI [36]: 13.6 µM and 14.2 µM
- GI50 [37]: 0.102 µM and 0.123 µM
- TGI [37]: 0.699 µM and 0.584 µM
- GI50 [39]: 0.202 µM and 0.242 µM
- TGI [39]: 2.61 µM and 3.53 µM
- GI50 [40]: 0.626 µM and 1.44 µM
- TGI [40]: 11.9 µM and 18.1 µM
- GI50 [41]: 0.196 µM and 0.23 µM
- TGI [41]: 15.5 µM and 15.9 µM
- GI50 [42]: 0.233 µM and 0.23 µM
- TGI [42]: 7.08 µM and 11.6 µM
- GI50 [43]: 0.0189 µM and 0.0234 µM
- TGI [43]: 1.25 µM and 1.04 µM
- GI50 [44]: 0.652 µM and 0.406 µM
- TGI [44]: 12.8 µM and 6.53 µM
- GI50 [45]: 0.182 µM and 0.211 µM
- TGI [45]: 2.97 µM and 4.19 µM
- GI50 [46]: 0.272 µM and 0.276 µM
- TGI [46]: > 37.8 µM and 11.8 µM
- GI50 [47]: 0.0806 µM and 0.0968 µM
- TGI [47]: 1.03 µM and 1.6 µM
- GI50 [48]: 0.0248 µM and 0.0337 µM
- TGI [48]: 4.42 µM and 11.9 µM
- GI50 [50]: 0.312 µM and 0.251 µM
- TGI [50]: 3.81 µM and 3.2 µM
- GI50 [51]: 0.443 µM and 0.372 µM
- TGI [51]: 8.98 µM and 2.09 µM
- GI50 [52]: 0.104 µM and 0.117 µM
- TGI [52]: 1.37 µM and 1.34 µM
- GI50 [53]: 0.0427 µM and 0.0464 µM
- TGI [53]: 1.28 µM and 1.57 µM
- GI50 [54]: 0.134 µM and 0.191 µM
- TGI [54]: 2.88 µM and 11.4 µM
- GI50 [55]: 0.133 µM and 0.16 µM
- TGI [55]: 2.13 µM and 2.37 µM
- GI50 [56]: 0.571 µM and 0.572 µM
- TGI [56]: 13.9 µM and 11.9 µM

Source: PubChem BioAssay (NCI)
